Reference: PMC7408607, “A Multiple N-Glucosylated Peptide Epitope Efficiently Detecting Antibodies in Multiple Sclerosis” (Brain Sciences, 2020)
pIC50: −log10 of the molar value. Like-named read-outs stand apart in the source and are kept apart here. Residues, ends and D or L forms follow the SMILES beside them. *: point of attachment. NH(β-D-Glc) = OC[C@H]1O[C@@H](N*)[C@H](O)[C@@H](O)[C@@H]1O

Test system: anti-CSF114(Glc) IgG antibodies from MS patients' serum
Experiment: Competitive (inhibition) ELISA on plates coated with CSF114(Glc)
Format: binding, human
Conditions: for Log1/IC50 ± StdError / IC50: Table S5, tri- and pentapeptides 9-22 and CSF114(Glc), representative MS serum (Figure 3); for IC50: CI 95% in brackets, read-out: IC50(M)[CI95%]; for Log1/IC50 ± Std Error: Table S4, shortened peptides versus CSF114(Glc), one representative positive MS serum; for pIC50: read-out: IC50
Method: Washing steps were executed with an automatic Hydroflex microplate washer (Tecan Italia, Milano, Italy). After five washes with washing buffer containing 0.9% NaCl and 0.05% Tween 20, nonspecific binding sites were blocked with 100 μL per well fetal calf serum (FCS) buffer solution (10% in washing buffer) at room temperature for 60 min.
Antibody affinity was measured following the inhibition methods reported elsewhere. Semi-saturating sera dilution was calculated in preliminary titration curves (absorbance 0.7). Six different concentrations of each synthetic antigenic peptide probe were used as inhibitors. Then, sera samples at the selected dilution were incubated in parallel with increasing concentrations of the synthetic shortened peptide sequences (range 1 × 10^−10 to 1 × 10^−4) for 60 min at room temperature. All inhibition experiments were performed in duplicate or triplicate for each single MS patient’s serum positive to CSF114(Glc) separately. All experiments were repeated at least twice on two different working days.
After three washes, uninhibited antibodies were identified by adding 100 µL/well of alkaline phosphatase-conjugated anti-human immunoglobulin G (IgG, Sigma-Aldrich, Milano, Italy) diluted 1:8000 in washing buffer containing 10% FCS. The microplates were then incubated 3 h at room temperature and, after three washes, 100 µL of substrate solution consisting of 1 mg/mL p-nitrophenyl phosphate (Sigma-Aldrich, Milano, Italy) in 10% diethanolamine buffer (pH 9.8) were added. After approximately 30 min, the reaction was stopped with 1M NaOH solution (50 µL/well), and the absorbance was read in a multichannel ELISA reader (Tecan Sunrise, Männedorf, Switzerland) at 405 nm. The selected ELISA microplates, coating conditions, reagent dilutions, buffers, and incubation times were previously tested. The relationship between peptide concentrations and the absorbance values was represented graphically in absorbance inhibition percentage, and half-maximal response concentration values (IC50) were calculated.

[1] = serum MS1 (Figure S2A), one of three MS positive sera tested in parallel
[2] = shortened CSF114(Glc) series (Figure 2, Table S4), one representative positive MS patient's serum, inhibitor 1 × 10^−10 to 1 × 10^−4, absorbance 405 nm, non-linear regression least squares fit

SMILES	Log1/IC50 ± StdError	other results
CC(=O)N[C@@H](CCC(=O)O)C(=O)N[C@@H](CCCNC(=N)N)C(=O)N[C@@H](CC(=O)N[C@@H]1O[C@H](CO)[C@@H](O)[C@H](O)[C@H]1O)C(=O)NCC(=O)N[C@@H](Cc1c[nH]cn1)C(N)=O [Ac-ERN(Glc)GH-NH2(20), Ac-ERN(Glc)GH-NH2] (Ac-ERD(NH(β-D-Glc))GH-NH2)	5.95 ± 0.112	–
CC(=O)N[C@@H](CCC(=O)O)C(=O)N[C@@H](CCCNC(=N)N)C(=O)N[C@@H](CC(=O)N[C@@H]1O[C@H](CO)[C@@H](O)[C@H](O)[C@H]1O)C(=O)NCC(=O)N[C@@H](CO)C(N)=O [Ac-ERN(Glc)GS-NH2(16), Ac-ERN(Glc)GS-NH2] (Ac-ERD(NH(β-D-Glc))GS-NH2)	5.677 ± 0.1444	–
CC(=O)N[C@@H](CCC(=O)O)C(=O)N[C@@H](CCCNC(=N)N)C(=O)N[C@@H](CC(=O)N[C@@H]1O[C@H](CO)[C@@H](O)[C@H](O)[C@H]1O)C(=O)NCC(=O)N[C@H](C(N)=O)[C@@H](C)O [Ac-ERN(Glc)GT-NH2(17), Ac-ERN(Glc)GT-NH2] (Ac-ERD(NH(β-D-Glc))GT-NH2)	6.23 ± 0.14	–
CC(=O)N[C@@H](CCC(=O)O)C(=O)N[C@@H](CCCNC(=N)N)C(=O)N[C@@H](CC(=O)N[C@@H]1O[C@H](CO)[C@@H](O)[C@H](O)[C@H]1O)C(=O)N[C@@H](CCCCN)C(=O)N[C@@H](Cc1c[nH]cn1)C(N)=O [Ac-ERN(Glc)KH-NH2(21), Ac-ERN(Glc)KH-NH2] (Ac-ERD(NH(β-D-Glc))KH-NH2)	5.98 ± 0.1482	–
CC(=O)N[C@@H](CCC(=O)O)C(=O)N[C@@H](CCCNC(=N)N)C(=O)N[C@@H](CC(=O)N[C@@H]1O[C@H](CO)[C@@H](O)[C@H](O)[C@H]1O)C(=O)N[C@@H](CCCCN)C(=O)N[C@@H](CO)C(N)=O [Ac-ERN(Glc)KS-NH2(18), Ac-ERN(Glc)KS-NH2] (Ac-ERD(NH(β-D-Glc))KS-NH2)	5.59 ± 0.19	–
CC(=O)N[C@@H](CCCCN)C(=O)NCC(=O)N[C@@H](CC(=O)N[C@@H]1O[C@H](CO)[C@@H](O)[C@H](O)[C@H]1O)C(=O)N[C@@H](C)C(=O)N[C@H](C(N)=O)[C@@H](C)O [Ac-KGN(Glc)AT-NH2(22), Ac-KGN(Glc)AT-NH2] (Ac-KGD(NH(β-D-Glc))AT-NH2)	6.22 ± 0.07	–
CC(=O)N[C@@H](CC(=O)N[C@@H]1O[C@H](CO)[C@@H](O)[C@H](O)[C@H]1O)C(=O)N[C@@H](C)C(=O)N[C@H](C(N)=O)[C@@H](C)O [Ac-N(Glc)AT-NH2(15), Ac-N(Glc)AT-NH2]	5.005 ± 0.05558	IC50: 7e-06 M
CC(=O)N[C@@H](CC(=O)N[C@@H]1O[C@H](CO)[C@@H](O)[C@H](O)[C@H]1O)C(=O)NCC(=O)N[C@@H](Cc1c[nH]cn1)C(N)=O [Ac-N(Glc)GH-NH2(13), Ac-N(Glc)GH-NH2]	5.226 ± 0.0433	IC50: 6.94e-06 M
CC(=O)N[C@@H](CC(=O)N[C@@H]1O[C@H](CO)[C@@H](O)[C@H](O)[C@H]1O)C(=O)NCC(=O)N[C@@H](CO)C(N)=O [Ac-N(Glc)GS-NH2(9), Ac-N(Glc)GS-NH2]	5.137 ± 0.063	–
CC(=O)N[C@@H](CC(=O)N[C@@H]1O[C@H](CO)[C@@H](O)[C@H](O)[C@H]1O)C(=O)NCC(=O)N[C@H](C(N)=O)[C@@H](C)O [Ac-N(Glc)GT-NH2(10), Ac-N(Glc)GT-NH2]	5.129 ± 0.1170	–
CC(=O)N[C@@H](CC(=O)N[C@@H]1O[C@H](CO)[C@@H](O)[C@H](O)[C@H]1O)C(=O)N[C@@H](CCCCN)C(=O)N[C@@H](Cc1c[nH]cn1)C(N)=O [Ac-N(Glc)KH-NH2(14), Ac-N(Glc)KH-NH2]	5.160 ± 0.01636	–
CC(=O)N[C@@H](CC(=O)N[C@@H]1O[C@H](CO)[C@@H](O)[C@H](O)[C@H]1O)C(=O)N[C@@H](CCCCN)C(=O)N[C@@H](CO)C(N)=O [Ac-N(Glc)KS-NH2(11), Ac-N(Glc)KS-NH2]	5.942 ± 0.1911	–
CC(=O)N[C@@H](CC(=O)N[C@@H]1O[C@H](CO)[C@@H](O)[C@H](O)[C@H]1O)C(=O)N[C@@H](CCCCN)C(=O)N[C@H](C(N)=O)[C@@H](C)O [Ac-N(Glc)KT-NH2(12), Ac-N(Glc)KT-NH2]	6.010 ± 0.06024	–
CSCC[C@H](NC(=O)[C@H](Cc1c[nH]c2ccccc12)NC(=O)CNC(=O)[C@H](Cc1ccc(O)cc1)NC(=O)[C@@H]1CCCN1C(=O)[C@H](C)NC(=O)[C@H](CC(C)C)NC(=O)[C@H](Cc1ccccc1)NC(=O)[C@@H](NC(=O)[C@H](CO)NC(=O)[C@H](Cc1c[nH]cn1)NC(=O)CNC(=O)[C@H](CC(=O)N[C@@H]1O[C@H](CO)[C@@H](O)[C@H](O)[C@H]1O)NC(=O)[C@H](CCCNC(=N)N)NC(=O)[C@H](CCC(=O)O)NC(=O)[C@@H](NC(=O)[C@H](CCCNC(=N)N)NC(=O)[C@@H]1CCCN1C(=O)[C@@H](N)[C@@H](C)O)C(C)C)C(C)C)C(=O)N[C@H](C(=O)N[C@@H](CCCCN)C(=O)O)C(C)C [CSF114(Glc) (1), CSF114(Glc), reference compound]	6.46 ± 0.083	Log1/IC50 ± Std Error: 6.14 ± 0.083; pIC50 [1]: 6.28; pIC50 (serum MS3 (Figure S2C)): 8.29; pIC50 [2]: 8.05
CC(=O)N[C@@H](CC(=O)N[C@@H]1O[C@H](CO)[C@@H](O)[C@H](O)[C@H]1O)C(=O)NCCCOCCOCCOCCCNC(=O)CCC(=O)NCCCC[C@H](NC(=O)CCC(=O)NCCCOCCOCCOCCCNC(=O)[C@H](CC(=O)N[C@@H]1O[C@H](CO)[C@@H](O)[C@H](O)[C@H]1O)NC(C)=O)C(=O)NCCCC[C@H](NC(=O)[C@H](CCCCNC(=O)CCC(=O)NCCCOCCOCCOCCCNC(=O)[C@H](CC(=O)N[C@@H]1O[C@H](CO)[C@@H](O)[C@H](O)[C@H]1O)NC(C)=O)NC(=O)CCC(=O)NCCCOCCOCCOCCCNC(=O)[C@H](CC(=O)N[C@@H]1O[C@H](CO)[C@@H](O)[C@H](O)[C@H]1O)NC(C)=O)C(=O)NCCC(=O)O [N-Glc MEP (24)]	–	pIC50 [1]: 7.67; pIC50 (serum MS3 (Figure S2C)): 7.67
CC(=O)N[C@H](C(=O)N[C@@H](CCC(=O)O)C(=O)N[C@@H](CCCNC(=N)N)C(=O)N[C@@H](CC(=O)N[C@@H]1O[C@H](CO)[C@@H](O)[C@H](O)[C@H]1O)C(=O)NCC(=O)N[C@@H](Cc1c[nH]cn1)C(=O)N[C@@H](CO)C(=O)N[C@H](C(N)=O)C(C)C)C(C)C [[Asn7(Glc)]CSF114(4‒11) (6), [Asn^7(Glc)] CSF114(4–11)] (Ac-VERD(NH(β-D-Glc))GHSV-NH2)	–	Log1/IC50 ± Std Error: 6.2 ± 0.29
CC(=O)N[C@@H](CCC(=O)O)C(=O)N[C@@H](CCCNC(=N)N)C(=O)N[C@@H](CC(=O)N[C@@H]1O[C@H](CO)[C@@H](O)[C@H](O)[C@H]1O)C(=O)NCC(=O)N[C@@H](Cc1c[nH]cn1)C(=O)N[C@@H](CO)C(N)=O [[Asn7(Glc)]CSF114(5‒10) (7), [Asn^7(Glc)] CSF114(5–10)] (Ac-ERD(NH(β-D-Glc))GHS-NH2)	–	Log1/IC50 ± Std Error: 5.4 ± 0.10; pIC50 [2]: 5.46
CC(=O)N[C@@H](CCCNC(=N)N)C(=O)N[C@@H](CC(=O)N[C@@H]1O[C@H](CO)[C@@H](O)[C@H](O)[C@H]1O)C(=O)NCC(=O)N[C@@H](Cc1c[nH]cn1)C(N)=O [[Asn7(Glc)]CSF114(6‒9) (8), [Asn^7(Glc)] CSF114(6–9)] (Ac-RD(NH(β-D-Glc))GH-NH2)	–	Log1/IC50 ± Std Error: 5.7 ± 0.25
